Legend:
[1] = system: Platelet-rich plasma (PRP); test: Platelet aggregation in man induced by the TXA2 agonist U46619; type: cell-based; conditions: human PRP, U46619 1 μM
Protocol: (§1) Platelet aggregation in man
(§2) Venous blood is obtained from human volunteers who have not taken aspirin for at least 14 days prior to the experiment. The blood is removed over sodium citrate (0.109 M) (1 vol. of citrate over 9 vol. of blood). Platelet-rich plasma (PRP) is obtained by centrifugation (20° C.) at 200 g for 10 minutes. The number of platelets is on average 250000 PL/mm^3. The PRP is stored at room temperature until the test and is used within 2 hours of having been taken. The TXA2 agonist U46619 is used at a concentration of 1 μM and 5-hydroxytryptamine is used at a concentration of 10 μM, the latter in the presence of 0.3 μM adenosine diphosphate and 1 μM adrenalin.
(§3) The values indicate that the compounds of the invention are powerful platelet anti-aggregants, which act in a balanced manner on the two activation routes, that of TXA2 and that of serotonin.

[2] = system: Platelet-rich plasma (PRP); test: Platelet aggregation in man induced by 5-hydroxytryptamine; type: cell-based; conditions: human PRP, 5-hydroxytryptamine 10 μM in the presence of 0.3 μM adenosine diphosphate and 1 μM adrenalin, read-out: IC50, platelet aggregation produced by 5-hydroxytryptamine
Protocol: as §1, §2, §3

**Q.** Which results are given for O=C(O)CCc1cc(CCN2CCC(c3nsc4cc(F)ccc34)CC2)cc2c1CCC(NS(=O)(=O)c1ccc(Cl)cc1)C2 (centres unmarked) [Example 4, 3-(6-{[(4-Chlorophenyl)sulphonyl]amino}-3-{2-[4-(6-fluoro-1,2-benzisothiazol-3-yl)-1-piperidinyl]ethyl}-5,6,7,8-tetrahydro-1-naphthyl)propanoic acid]?
**A.** IC50 [1]: 170 nM; IC50 [2]: 230 nM
